In one assay the target is T1, Human GIPR (Homo sapiens, UniProt P48546).
T1 construct: expressed in transfected cells; host or cells: CHO cells
T1 sequence (P48546 22-466): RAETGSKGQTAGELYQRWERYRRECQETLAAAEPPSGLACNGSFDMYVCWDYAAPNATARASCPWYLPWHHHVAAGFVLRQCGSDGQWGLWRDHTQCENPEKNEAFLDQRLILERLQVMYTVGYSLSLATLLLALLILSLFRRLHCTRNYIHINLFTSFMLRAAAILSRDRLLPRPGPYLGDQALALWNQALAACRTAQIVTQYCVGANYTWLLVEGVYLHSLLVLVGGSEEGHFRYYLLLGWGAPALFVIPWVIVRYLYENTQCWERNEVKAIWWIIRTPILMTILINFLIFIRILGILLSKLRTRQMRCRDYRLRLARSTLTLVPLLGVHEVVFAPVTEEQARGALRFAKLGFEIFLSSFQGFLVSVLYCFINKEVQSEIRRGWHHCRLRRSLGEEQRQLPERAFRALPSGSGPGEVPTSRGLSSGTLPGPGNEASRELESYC
Description: cAMP accumulation assay, GIPR. The assay is classed as cell-based. Here is the method:
These cells were then resuspended in 5 mL of the assay buffer, and their concentration was determined using a Vi-Cell Counter. […] Samples were subsequently added to the assay plate along with ECHO555. […] A volume of 10 µL of the cell suspension was added to the assay plate, with a density of 1000 cells/well for GLP-1R testing and 2000 cells/well for GIPR testing. The assay plate was then incubated in a 23°C incubator for 30 minutes. A starting concentration of 800 nM was used to prepare the cAMP standard curve, followed by a 4-fold 10-point serial dilution. These serially diluted cAMP standards were added to the assay plate at a volume of 10 µL/well. Subsequently, 10 µL of the cAMP detection solution was added to the assay plate, and the plate was incubated at room temperature for 1 hour, shielded from direct light. […] For data analysis, each data point’s cAMP level (nM) was calculated using the established cAMP standard curve. The percentage activity for each data point was determined using the formula: % Activity = (cAMP level of testing sample - average cAMP level of low control) / ([…] cAMP level of high control - average cAMP level of […] control) × 100%. Additionally, the ‘log(agonist) vs. response – variable slope’ model in GraphPad Prism 5.0 was used to fit the dose-response curve of each sample and calculate the EC50 value.
In general terms: cAMP levels reflect the balance of adenylyl cyclase and phosphodiesterase activity.

The subject of another assay is db/db mice. Description: Blood glucose reducing effect in db/db mice model. Conditions: for Insulin in serum: 31 days, ELISA, three days after last dose, Mean±SD, n=11. Type of assay: in vivo. Here is the method: In contrast, the db/db-ND group received only the drug vehicle via subcutaneous injection. Three parallel experimental groups were established to explore the dose-dependent characteristics of BGM0504 in db/db mice: a low-dose group (0.05 mg/kg), a standard dose group (0.15 mg/kg), and a high-dose group (0.5 mg/kg), each comprising 11 db/db mice. Subsequent administrations were conducted every 3 days following the initial administration, and the experiment spanned 31 days. […] To thoroughly investigate the dose dependence of BGM0504 in db/db mice, we established additional dose groups, including a low-dose group at 0.05 mg/kg and a high-dose group at 0.5 mg/kg. Each experimental group comprised 11 db/db mice. Following the initial administration, subsequent doses were administered every 3 days, spanning a total of 31 days. Throughout this study, we meticulously observed and analyzed a spectrum of parameters encompassing changes in body weight, food intake, non-fasting blood glucose post-initial administration. In this experimental endeavor, we engaged 55 male db/db mice of SPF grade, procured at 6–8 weeks, from Zhejiang Vital River Laboratory Animal Technology Co., Ltd. The animals were divided into groups based on body weight and fasting blood glucose levels. […] The groups included the db/db-ND group, the Tirzepatide-0.15 mg/kg group, the BGM0504-0.05 mg/kg group, the BGM0504-0.15 mg/kg group, and the BGM0504-0.5 mg/kg group, each comprising 11 mice. […] Non-fasting blood glucose levels were measured at 0, 1, 2, 3, 6, 24, 48, and 72 hours post-administration. Three days after the last dose, the mice were weighed. Subsequently, a portion of non-anticoagulated whole blood was collected from the orbital venous plexus under anesthesia. Blood samples were left at room temperature for 30 minutes, then centrifuged at 5000 rpm for 5 minutes. The serum was separated and frozen at -80°C for serum insulin content testing. Serum insulin levels were measured using the enzyme-linked immunosorbent assay (ELISA) method.

This note sets out measurements from paper PMC11271627, “Molecular dynamics-guided optimization of BGM0504 enhances dual-target agonism for combating diabetes and obesity” (Scientific Reports, 2024).

Structures are written as SMILES. Marks after values point to notes of the source that are not given here.

On Human GIPR, `CC[C@H](C)[C@H](NC(=O)[C@H](CC(C)C)NC(=O)[C@H](Cc1c[nH]c2ccccc12)NC(=O)[C@H](CCC(N)=O)NC(=O)[C@@H](NC(=O)[C@H](Cc1ccccc1)NC(=O)[C@H](C)NC(=O)[C@H](CCCCN)NC(=O)[C@H](CCC(N)=O)NC(=O)[C@H](C)NC(=O)[C@@H](NC(=O)[C@H](CCCCN)NC(=O)[C@H](CC(=O)O)NC(=O)[C@H](CC(C)C)NC(=O)C(C)(C)NC(=O)[C@@H](NC(=O)[C@H](CO)NC(=O)[C@H](Cc1ccc(O)cc1)NC(=O)[C@H](CC(=O)O)NC(=O)[C@H](CO)NC(=O)[C@@H](NC(=O)[C@H](Cc1ccccc1)NC(=O)[C@@H](NC(=O)CNC(=O)[C@H](CCC(=O)O)NC(=O)C(C)(C)NC(=O)[C@@H](N)Cc1ccc(O)cc1)[C@@H](C)O)[C@@H](C)O)[C@@H](C)CC)[C@@H](C)CC)C(C)C)C(=O)N[C@@H](C)C(=O)NCC(=O)NCC(=O)N1CCC[C@H]1C(=O)N[C@@H](CO)C(=O)N[C@@H](CO)C(=O)NCC(=O)N[C@@H](C)C(=O)N1CCC[C@H]1C(=O)N1CCC[C@H]1C(=O)N1CCC[C@H]1C(=O)N[C@@H](CO)C(=O)N[C@@H](CCCCNC(=O)COCCOCCOCCNC(=O)COCCOCCOCCNC(=O)CC[C@H](NC(=O)CCCCCCCCCCCCCCCCCCC(=O)O)C(=O)O)C(N)=O` [BGM0504] displayed an EC50 of 0.182 nM. The compound further displayed a maximum response (Emax) on Human GIPR (CHO) of 106 ± 7.9%. The values for the Insulin in serum in the assay with db/db mice (0.05 mg/kg s.c. every 3 days), in the assay on db/db mice (0.15 mg/kg s.c. every 3 days) and with db/db mice (0.5 mg/kg s.c. every 3 days) were 37649.0±3597.0^a nIU/mL, 30897.0±5634.0^a nIU/mL and 32774.0±6290.0^a nIU/mL, respectively. For the same compound, the “body weight and food intake” value with db/db mice (early stages of administration) is “acute decline in body weight and food intake”. Besides, the “non-fasting blood glucose within 72 h after first administration, vs db/db-ND group” value in the assay on db/db mice (s.c., Tirzepatide 0.15 mg/kg, BGM0504 0.05, 0.15, 0.5 mg/kg, n = 11) is “significant blood glucose suppression”.

What is called EC50 is the concentration at which the effect is half-maximal. Higher therefore signals a need for much substance. A word on the Emax: it is the size of the effect at its maximum, as opposed to the concentration needed.
